Test results taken from ChEMBL document CHEMBL1201862, “PubChem BioAssay data set” (2004).
“And” between values parts separate entries of the source, which are not always exact repeats. Identical values can stand only once. The source made the active and inactive calls.

What was measured:
Aspartyl aminopeptidase = biological target: T1, Aspartyl aminopeptidase (Plasmodium falciparum 3D7, UniProt Q8I2J3)
T1 sequence (Q8I2J3 whole entry): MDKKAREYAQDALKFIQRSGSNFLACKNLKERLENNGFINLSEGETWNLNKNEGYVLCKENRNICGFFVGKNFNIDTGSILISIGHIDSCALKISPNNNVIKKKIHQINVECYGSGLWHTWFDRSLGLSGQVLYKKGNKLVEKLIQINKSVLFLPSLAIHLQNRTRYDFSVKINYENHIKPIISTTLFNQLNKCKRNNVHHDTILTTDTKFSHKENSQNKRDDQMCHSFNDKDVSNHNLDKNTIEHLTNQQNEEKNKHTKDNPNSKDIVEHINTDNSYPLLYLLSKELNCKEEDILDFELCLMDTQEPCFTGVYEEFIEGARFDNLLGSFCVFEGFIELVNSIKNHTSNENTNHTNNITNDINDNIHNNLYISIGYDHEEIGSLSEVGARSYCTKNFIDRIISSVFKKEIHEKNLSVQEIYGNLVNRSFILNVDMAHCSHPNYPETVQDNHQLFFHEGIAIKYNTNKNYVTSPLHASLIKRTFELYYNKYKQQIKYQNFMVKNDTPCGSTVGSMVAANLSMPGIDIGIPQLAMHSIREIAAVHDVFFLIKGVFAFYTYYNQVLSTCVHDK

Procathepsin L = Procathepsin L (Homo sapiens, UniProt P07711)
Procathepsin L, sequence (P07711 whole entry): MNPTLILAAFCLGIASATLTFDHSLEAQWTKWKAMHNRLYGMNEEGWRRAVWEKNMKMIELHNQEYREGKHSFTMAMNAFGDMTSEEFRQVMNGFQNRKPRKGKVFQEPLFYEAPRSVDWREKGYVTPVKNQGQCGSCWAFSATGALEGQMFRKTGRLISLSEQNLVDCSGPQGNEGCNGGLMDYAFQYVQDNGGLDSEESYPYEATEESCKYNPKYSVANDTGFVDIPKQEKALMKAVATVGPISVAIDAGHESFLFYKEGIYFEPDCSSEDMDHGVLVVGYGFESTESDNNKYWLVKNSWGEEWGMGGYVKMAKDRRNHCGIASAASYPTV

[1] = A cytotoxicity screen of small molecule inhibitors of the PhoP region in Salmonella typhi identified in the primary screen. [Related pubchem assays: 1850, 1864, 1985 ]; format: functional
Estrogen receptor = biological target: T2, Estrogen receptor (Homo sapiens, UniProt P03372); test: ERα coactivator recruitment enhancers – biochemical, TR-FRET, ERα LBD, dose response (AID 737)
T2 sequence (P03372 whole entry): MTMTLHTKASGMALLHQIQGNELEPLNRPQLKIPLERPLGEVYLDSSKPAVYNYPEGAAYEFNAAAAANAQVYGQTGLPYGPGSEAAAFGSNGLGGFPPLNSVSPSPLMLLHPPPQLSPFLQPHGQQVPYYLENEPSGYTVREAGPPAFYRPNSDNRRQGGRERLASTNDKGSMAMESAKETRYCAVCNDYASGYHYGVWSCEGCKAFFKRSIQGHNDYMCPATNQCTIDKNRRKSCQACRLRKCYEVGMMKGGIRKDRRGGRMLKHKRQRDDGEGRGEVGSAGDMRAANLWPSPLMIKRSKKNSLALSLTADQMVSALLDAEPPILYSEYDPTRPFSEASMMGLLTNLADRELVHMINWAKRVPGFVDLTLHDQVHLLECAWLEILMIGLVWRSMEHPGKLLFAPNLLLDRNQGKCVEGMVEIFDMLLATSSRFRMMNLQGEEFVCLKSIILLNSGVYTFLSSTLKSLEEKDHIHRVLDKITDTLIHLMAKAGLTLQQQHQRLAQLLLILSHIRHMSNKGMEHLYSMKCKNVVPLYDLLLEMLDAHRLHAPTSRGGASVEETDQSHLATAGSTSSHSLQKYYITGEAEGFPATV

[2] = biological target: Peroxisome proliferator-activated receptor gamma/Nuclear receptor coactivator 3 (Homo sapiens, UniProt P37231); format: functional;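 note: agonist potency for raising coactivator recruitment to the receptor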
[3] = biological target: Peroxisome proliferator-activated receptor gamma/Nuclear receptor coactivator 2 (Homo sapiens, UniProt P37231); format: functional;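 note: agonist potency for raising coactivator recruitment to the receptor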
Peroxisome proliferator-activated receptor gamma/Nuclear receptor coactivator 2, sequence (P37231 whole entry): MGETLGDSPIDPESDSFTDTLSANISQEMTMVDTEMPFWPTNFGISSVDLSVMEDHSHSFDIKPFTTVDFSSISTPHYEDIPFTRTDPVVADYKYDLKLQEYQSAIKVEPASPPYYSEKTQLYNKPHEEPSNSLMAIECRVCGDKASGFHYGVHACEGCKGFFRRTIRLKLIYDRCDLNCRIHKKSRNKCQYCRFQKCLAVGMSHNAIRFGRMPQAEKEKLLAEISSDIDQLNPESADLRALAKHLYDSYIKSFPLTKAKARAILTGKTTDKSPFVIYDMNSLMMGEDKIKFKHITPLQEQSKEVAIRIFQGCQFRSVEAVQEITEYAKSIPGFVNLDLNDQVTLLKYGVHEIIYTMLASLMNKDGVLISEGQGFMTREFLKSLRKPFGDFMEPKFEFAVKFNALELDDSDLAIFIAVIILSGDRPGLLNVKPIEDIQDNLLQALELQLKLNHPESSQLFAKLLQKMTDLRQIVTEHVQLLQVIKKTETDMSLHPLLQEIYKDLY
Peroxisome proliferator-activated receptor gamma/Nuclear receptor coactivator 2, sequence (Q15596 whole entry, further chain): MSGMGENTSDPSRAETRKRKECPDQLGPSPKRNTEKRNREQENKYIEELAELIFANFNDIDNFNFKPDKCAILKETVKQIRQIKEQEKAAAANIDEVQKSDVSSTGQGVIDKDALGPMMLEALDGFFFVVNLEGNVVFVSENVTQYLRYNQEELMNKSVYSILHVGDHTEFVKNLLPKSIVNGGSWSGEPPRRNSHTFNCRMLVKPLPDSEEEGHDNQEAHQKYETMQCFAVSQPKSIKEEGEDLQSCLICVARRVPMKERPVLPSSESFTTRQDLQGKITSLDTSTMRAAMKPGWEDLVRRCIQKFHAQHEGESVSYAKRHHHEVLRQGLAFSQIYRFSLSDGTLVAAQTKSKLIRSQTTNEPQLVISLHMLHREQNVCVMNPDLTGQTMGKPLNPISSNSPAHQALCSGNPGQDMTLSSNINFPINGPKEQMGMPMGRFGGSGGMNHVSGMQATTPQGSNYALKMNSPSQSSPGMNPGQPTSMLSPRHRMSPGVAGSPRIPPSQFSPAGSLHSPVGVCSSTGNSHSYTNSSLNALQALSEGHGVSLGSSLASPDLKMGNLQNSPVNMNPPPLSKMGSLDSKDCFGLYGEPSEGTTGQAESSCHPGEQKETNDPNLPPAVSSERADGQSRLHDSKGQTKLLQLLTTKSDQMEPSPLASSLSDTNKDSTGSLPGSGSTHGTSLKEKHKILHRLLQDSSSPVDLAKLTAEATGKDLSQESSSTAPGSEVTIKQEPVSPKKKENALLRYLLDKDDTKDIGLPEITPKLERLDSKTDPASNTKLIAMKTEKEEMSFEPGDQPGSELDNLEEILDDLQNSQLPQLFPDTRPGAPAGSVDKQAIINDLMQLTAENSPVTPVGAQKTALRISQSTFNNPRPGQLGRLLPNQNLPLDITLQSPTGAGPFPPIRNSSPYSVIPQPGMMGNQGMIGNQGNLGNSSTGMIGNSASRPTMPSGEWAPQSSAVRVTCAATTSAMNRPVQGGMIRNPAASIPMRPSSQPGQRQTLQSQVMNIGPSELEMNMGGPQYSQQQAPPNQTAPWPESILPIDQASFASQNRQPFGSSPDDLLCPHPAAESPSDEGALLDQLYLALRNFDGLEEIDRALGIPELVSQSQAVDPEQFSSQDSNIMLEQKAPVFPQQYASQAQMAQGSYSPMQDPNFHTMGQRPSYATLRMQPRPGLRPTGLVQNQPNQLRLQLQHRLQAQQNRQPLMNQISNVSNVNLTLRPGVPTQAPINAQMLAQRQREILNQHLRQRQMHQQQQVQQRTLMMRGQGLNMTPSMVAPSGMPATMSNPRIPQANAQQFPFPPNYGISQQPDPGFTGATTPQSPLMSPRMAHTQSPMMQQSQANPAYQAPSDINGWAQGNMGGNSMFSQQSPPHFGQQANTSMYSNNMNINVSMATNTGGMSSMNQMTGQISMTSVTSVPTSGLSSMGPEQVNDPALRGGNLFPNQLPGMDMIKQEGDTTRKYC

[4] = biological target: Peroxisome proliferator-activated receptor gamma/Nuclear receptor coactivator 1 (Homo sapiens, UniProt P37231); format: functional;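 note: agonist potency as compounds enhance coactivator SRC-1 recruitment to PPARgamma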
Peroxisome proliferator-activated receptor gamma/Nuclear receptor coactivator 1, sequence (P37231 whole entry): as the sequence (P37231 whole entry) above
Peroxisome proliferator-activated receptor gamma/Nuclear receptor coactivator 1, sequence (Q15788 whole entry, further chain): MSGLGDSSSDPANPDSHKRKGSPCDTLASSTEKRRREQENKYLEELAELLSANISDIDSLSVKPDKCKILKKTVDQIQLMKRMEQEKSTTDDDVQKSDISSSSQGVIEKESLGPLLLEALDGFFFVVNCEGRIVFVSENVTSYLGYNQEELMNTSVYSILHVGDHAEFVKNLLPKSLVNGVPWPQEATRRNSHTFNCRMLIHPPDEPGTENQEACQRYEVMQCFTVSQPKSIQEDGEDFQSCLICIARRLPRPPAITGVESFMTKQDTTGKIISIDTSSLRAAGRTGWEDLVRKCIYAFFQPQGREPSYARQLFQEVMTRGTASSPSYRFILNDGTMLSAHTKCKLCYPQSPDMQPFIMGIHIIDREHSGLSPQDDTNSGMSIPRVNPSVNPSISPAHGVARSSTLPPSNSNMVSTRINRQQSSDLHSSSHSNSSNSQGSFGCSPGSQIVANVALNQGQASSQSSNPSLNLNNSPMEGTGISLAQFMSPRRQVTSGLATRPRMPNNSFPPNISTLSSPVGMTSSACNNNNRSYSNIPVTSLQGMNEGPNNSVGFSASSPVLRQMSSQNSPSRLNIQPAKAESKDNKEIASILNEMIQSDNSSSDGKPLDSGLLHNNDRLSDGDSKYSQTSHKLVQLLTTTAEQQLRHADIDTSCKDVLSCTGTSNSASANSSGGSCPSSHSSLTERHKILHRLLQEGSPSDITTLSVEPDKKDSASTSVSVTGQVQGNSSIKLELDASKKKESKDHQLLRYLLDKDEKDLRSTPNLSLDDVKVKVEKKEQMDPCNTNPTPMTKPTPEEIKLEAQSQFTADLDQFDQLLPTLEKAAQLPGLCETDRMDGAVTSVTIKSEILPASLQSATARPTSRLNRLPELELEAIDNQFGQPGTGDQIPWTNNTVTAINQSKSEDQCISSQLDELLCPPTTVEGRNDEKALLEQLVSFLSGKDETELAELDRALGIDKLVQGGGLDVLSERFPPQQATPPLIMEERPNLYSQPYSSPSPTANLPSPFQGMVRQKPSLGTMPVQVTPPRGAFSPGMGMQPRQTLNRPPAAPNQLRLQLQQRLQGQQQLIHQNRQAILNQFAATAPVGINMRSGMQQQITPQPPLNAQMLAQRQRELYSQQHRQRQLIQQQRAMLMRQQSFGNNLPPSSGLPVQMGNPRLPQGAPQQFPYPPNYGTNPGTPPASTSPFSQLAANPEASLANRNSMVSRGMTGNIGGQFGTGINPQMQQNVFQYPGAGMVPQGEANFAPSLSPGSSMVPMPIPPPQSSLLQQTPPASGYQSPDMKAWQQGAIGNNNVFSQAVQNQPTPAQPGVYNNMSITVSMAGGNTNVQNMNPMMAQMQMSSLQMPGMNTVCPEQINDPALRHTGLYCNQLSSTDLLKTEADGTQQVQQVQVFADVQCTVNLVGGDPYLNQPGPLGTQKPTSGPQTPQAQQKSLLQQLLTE

[5] = biological target: Mothers against decapentaplegic homolog 3 (Homo sapiens, UniProt P84022); test: blockers of Smad3 complex formation in lysate – cell lysate, secondary confirmation, chemiluminescent ELISA, HEK293 lysate, dose response (AID 1058); format: functional
Mothers against decapentaplegic homolog 3, sequence (P84022 whole entry): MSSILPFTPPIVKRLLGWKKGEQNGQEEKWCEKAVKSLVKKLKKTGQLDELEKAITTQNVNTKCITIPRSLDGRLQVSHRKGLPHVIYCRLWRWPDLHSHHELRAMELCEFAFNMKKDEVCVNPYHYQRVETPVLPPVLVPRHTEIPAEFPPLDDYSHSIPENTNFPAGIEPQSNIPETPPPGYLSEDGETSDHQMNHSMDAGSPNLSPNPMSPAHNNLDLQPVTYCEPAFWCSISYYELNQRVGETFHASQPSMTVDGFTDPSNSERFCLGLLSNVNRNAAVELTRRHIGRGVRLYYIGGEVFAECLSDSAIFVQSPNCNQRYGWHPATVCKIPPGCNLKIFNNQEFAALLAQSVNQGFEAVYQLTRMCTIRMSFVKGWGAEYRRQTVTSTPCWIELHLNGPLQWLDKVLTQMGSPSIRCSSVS

[6] = biological target: Luciferin 4-monooxygenase (Photinus pyralis, UniProt P08659); test: inhibition of purified Photinus pyralis luciferase – biochemical, luminescence, dose response (AID 1891)
[7] = Luminescence Cell-Based Dose Confirmation HTS to Identify Inhibitors of Platelet Dense Granule Release. [Related pubchem assays: 1663 (Primary HTS), 1678 (Summary of Project)]; format: functional
[8] = A Cell Based Secondary Assay To Explore Cytotoxicity of Compounds that Sensitize Mycobacterium Tuberculosis to Beta-Lactam Antibiotics.; format: functional
[9] = biological target: T3, Induced myeloid leukemia cell differentiation protein Mcl-1 (Homo sapiens, UniProt Q07820); test: blockers of MCL1 binding to BIM peptide – biochemical, fluorescence polarization, BIM-BH3 peptide, 1536-well, dose response (AID 2217)
T3 sequence (Q07820 whole entry): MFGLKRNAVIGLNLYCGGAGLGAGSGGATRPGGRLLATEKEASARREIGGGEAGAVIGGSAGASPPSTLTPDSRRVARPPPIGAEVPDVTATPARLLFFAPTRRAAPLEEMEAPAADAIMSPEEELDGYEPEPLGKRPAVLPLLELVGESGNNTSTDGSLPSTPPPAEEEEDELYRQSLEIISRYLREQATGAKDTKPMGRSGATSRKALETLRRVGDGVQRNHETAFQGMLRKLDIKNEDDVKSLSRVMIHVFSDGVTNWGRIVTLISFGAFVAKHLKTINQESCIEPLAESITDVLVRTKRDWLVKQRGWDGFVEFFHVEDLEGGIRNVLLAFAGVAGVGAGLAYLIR

Bcl-2-like protein 1 = Bcl-2-like protein 1 (Homo sapiens, UniProt Q07817); test: blockers of BCLXL peptide binding – biochemical, fluorescence polarization, 1536-well, selectivity assay for MCL1 inhibitor project, dose response (AID 2218)
[10] = biological target: Bifunctional protein GlmU (Mycobacterium tuberculosis, UniProt P9WMN3); test: Inhibitors of Mycobacterial Glucosamine-1-phosphate acetyl transferase (GlmU). Secondary screen.; design: species or system Mycobacterium tuberculosis H37Rv
[11] = biological target: T3, Induced myeloid leukemia cell differentiation protein Mcl-1; format: functional
Aminopeptidase N = biological target: T4, Aminopeptidase N (Plasmodium falciparum FcB1/Columbia, UniProt O96935); test: malaria alanyl aminopeptidase activity blockers – biochemical, fluorogenic H-Leu-NHMec substrate, 1536-well (AID 1445); design: species or system Plasmodium falciparum 3D7, 3D7
T4 sequence (O96935 whole entry): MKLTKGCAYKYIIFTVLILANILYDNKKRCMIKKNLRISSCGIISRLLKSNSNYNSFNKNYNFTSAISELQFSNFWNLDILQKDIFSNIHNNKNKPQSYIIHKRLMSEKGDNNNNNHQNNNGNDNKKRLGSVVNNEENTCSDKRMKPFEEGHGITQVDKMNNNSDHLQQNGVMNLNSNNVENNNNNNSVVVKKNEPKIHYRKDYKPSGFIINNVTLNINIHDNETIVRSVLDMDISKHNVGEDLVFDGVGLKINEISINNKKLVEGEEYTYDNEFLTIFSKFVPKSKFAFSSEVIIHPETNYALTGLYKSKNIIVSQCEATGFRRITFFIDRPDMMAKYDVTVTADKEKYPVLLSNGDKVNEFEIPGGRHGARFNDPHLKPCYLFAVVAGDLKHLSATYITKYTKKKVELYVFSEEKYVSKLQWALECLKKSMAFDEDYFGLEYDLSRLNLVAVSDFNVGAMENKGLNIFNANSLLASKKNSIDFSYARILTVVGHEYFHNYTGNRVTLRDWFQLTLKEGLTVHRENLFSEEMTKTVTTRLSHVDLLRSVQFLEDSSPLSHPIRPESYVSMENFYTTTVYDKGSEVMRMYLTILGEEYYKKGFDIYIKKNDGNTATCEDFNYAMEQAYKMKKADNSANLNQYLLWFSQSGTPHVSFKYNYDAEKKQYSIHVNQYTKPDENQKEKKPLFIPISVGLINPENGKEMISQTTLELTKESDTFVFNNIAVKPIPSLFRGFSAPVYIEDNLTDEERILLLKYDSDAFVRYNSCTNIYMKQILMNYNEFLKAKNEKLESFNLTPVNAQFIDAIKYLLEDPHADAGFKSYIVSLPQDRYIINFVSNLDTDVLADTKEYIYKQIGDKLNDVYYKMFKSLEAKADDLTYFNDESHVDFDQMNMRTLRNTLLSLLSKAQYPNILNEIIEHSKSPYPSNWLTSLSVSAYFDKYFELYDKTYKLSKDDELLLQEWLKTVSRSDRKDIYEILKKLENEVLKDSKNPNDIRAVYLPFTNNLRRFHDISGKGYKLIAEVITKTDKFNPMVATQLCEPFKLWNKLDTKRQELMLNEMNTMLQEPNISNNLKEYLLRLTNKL

Caspase-6 = biological target: T5, Caspase-6 (Homo sapiens, UniProt P55212); test: inhibition of CASP6 peptide cleavage – biochemical, VEID-R110 fluorescence, cherry-pick, dose response (AID 720632)
T5 sequence (P55212 whole entry): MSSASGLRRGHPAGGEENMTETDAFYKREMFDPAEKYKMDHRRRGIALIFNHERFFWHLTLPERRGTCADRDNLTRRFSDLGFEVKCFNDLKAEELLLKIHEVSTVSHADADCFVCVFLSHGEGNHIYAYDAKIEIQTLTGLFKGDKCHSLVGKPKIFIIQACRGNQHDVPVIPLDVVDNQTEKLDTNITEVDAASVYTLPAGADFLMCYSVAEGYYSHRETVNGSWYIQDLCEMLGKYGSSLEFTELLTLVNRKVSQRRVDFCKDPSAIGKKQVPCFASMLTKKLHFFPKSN

[12] = biological target: DNA (cytosine-5)-methyltransferase 1 (Homo sapiens, UniProt P26358); test: inhibition of DNA methylation by DNMT1 – biochemical, fluorescent molecular beacon, confirmation (AID 602386); format: functional
[13] = biological target: T6, Histone-lysine N-methyltransferase NSD2 (Homo sapiens, UniProt O96028); format: biochemical
T6 sequence (O96028 whole entry): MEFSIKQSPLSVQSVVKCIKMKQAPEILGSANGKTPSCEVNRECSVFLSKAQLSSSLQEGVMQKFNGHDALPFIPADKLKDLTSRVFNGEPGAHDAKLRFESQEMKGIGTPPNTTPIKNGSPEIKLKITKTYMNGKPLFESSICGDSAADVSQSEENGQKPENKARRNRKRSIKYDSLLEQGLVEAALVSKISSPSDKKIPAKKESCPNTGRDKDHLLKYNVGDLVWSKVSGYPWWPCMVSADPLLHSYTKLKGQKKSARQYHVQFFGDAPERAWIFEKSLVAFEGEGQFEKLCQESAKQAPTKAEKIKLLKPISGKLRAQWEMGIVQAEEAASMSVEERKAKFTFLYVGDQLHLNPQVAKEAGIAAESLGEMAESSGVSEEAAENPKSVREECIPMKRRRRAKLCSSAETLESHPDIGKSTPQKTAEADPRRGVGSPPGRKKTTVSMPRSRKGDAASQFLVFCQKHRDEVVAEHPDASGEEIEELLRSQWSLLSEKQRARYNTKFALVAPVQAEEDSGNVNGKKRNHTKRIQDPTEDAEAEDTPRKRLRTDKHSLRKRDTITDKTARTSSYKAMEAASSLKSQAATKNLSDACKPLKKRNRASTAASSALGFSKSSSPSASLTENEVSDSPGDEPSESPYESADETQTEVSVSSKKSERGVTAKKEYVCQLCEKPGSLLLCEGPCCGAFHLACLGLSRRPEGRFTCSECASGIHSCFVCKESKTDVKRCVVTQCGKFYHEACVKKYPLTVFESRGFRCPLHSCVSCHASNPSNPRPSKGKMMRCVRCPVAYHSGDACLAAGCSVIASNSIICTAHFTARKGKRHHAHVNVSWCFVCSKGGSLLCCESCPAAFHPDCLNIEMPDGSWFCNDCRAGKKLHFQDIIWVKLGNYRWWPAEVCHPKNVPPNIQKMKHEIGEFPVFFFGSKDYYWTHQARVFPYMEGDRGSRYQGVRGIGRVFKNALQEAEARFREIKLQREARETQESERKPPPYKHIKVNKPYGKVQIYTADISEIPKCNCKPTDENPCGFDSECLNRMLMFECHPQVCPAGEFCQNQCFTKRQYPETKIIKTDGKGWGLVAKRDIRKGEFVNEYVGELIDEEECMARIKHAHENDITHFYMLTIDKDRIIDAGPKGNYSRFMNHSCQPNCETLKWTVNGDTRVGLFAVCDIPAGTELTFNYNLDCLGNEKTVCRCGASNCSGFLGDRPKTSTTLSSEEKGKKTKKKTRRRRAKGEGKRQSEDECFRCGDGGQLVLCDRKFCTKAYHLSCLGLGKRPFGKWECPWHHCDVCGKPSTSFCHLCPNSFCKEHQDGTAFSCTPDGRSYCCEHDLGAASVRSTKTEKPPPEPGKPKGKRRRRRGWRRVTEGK

## Cc1c(C(=O)Nn2cnnc2)oc2ccccc12
Aspartyl aminopeptidase
  IC50: 0.664 µM (active)
Procathepsin L
  IC50: > 59.6 µM (not active)

## COC(=O)c1c(-c2cccc(C)c2)csc1N
[1]
  EC50: > 50 µM (active)

## CCOC(=O)c1c(C)[nH]c(C)c1C(=O)CSc1nnc(-c2cc(OC)c(OC)c(OC)c2)o1
Estrogen receptor
  EC50: 12.5 µM (active)

## O=C(c1cc2c(s1)-c1ccccc1S(=O)(=O)C2)N1CCN(Cc2ccccc2)CC1
[1]
  EC50: > 50 µM (active)

## Cc1cc(C)c(C#N)c(SCc2cc3c(cc2Cl)OCO3)n1
[2]
  EC50: > 79.4 µM (not active)
[3]
  EC50: > 79.4 µM (not active)
[4]
  EC50: > 79.4 µM (not active)

## O=C(Nc1ccc([N+](=O)[O-])cc1)Nn1cnnc1
Aspartyl aminopeptidase
  IC50: 1.03 µM (active)
Procathepsin L
  IC50: > 59.6 µM (not active)

## COc1ccccc1C(c1cc2c(cc1O)OCO2)N1CCOCC1 (stereo not drawn)
[5]
  IC50: 35.3 µM (not active) and < 2.5 µM (not active)

## NOC(=O)C1=CC(=C(c2ccc(O)c(C(=O)ON)c2)c2ccc(O)c(C(=O)ON)c2)C=CC1=O
[5]
  IC50: 22.5 µM (not active)

## O=C(COC(=O)c1sc2ccccc2c1Cl)NC1CCCCC1
[2]
  EC50: > 79.4 µM (not active)
[3]
  EC50: > 79.4 µM (not active)
[4]
  EC50: > 79.4 µM (not active)
[6]
  EC50: > 112 µM (not active)
[7]
  EC50: > 112 µM (not active)

## COc1cc(C(=O)NC2CCCCC2)ccc1OCc1ccc(Cl)cc1Cl
[8]
  CC50: 24.7 µM (active)

## COc1cccc(-c2cc(C(=O)Nc3cc(C)nn3-c3ccccc3)no2)c1
Estrogen receptor
  EC50: 12 µM (active)

## CCOC(=O)c1nn(-c2ccc(F)cc2)c2nc(Nc3ccccc3)cc(=O)n12
[8]
  CC50: > 40 µM (active)

## O=C(O)c1ccc(-n2cccc2/C=N\NC(=O)c2cc3cc(Br)ccc3o2)cc1
[9]
  IC50: 12.1 µM (not active)
Bcl-2-like protein 1
  IC50: > 109 µM (not active)
[10]
  IC50: 66 µM (active)
[11]
  IC50: 1.72 µM (active)
Aminopeptidase N
  IC50: 37.1 µM (active)
Caspase-6
  AC50: 0.801 µM (active)
[12]
  IC50: 4.36 µM (active)
[13]
  AC50: 7.63 µM (active)
